From PubChem BioAssay AID1963966 (Molecular Pharmacology Branch, DTP, NCI, 2024)

Test system: 935938-334-R-J1-PDC spheroids with HUVEC/MSC, viability
Experiment: Anticancer human tumor 935938-334-R-J1-PDC patient-derived small intestine adenocarcinoma cell line growth inhibition [PI3K]
Conditions: for IC50: curve of first compound; for viability, T/C: stronger effect = lower value
Summary of the method: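 Stroma-containing spheroids: tumor line, pooled-donor HUVEC, hMSC. Treatments: targeted agents with PI3K inhibitors. Dosing: clinically relevant, half-log spacing, 10 microM ceiling without known Cmax. Read-out: cell viability.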

[1] = second compound 0.0316 µM, first compound 0.000316 µM
[2] = second compound 0.0316 µM, first compound 0.001 µM
[3] = second compound 0.0316 µM, first compound 0.00316 µM
[4] = second compound 0.0316 µM, first compound 0.01 µM
[5] = second compound 0.0316 µM, first compound 0.0316 µM
[6] = second compound 0.0316 µM, first compound 0.1 µM
[7] = second compound 0.1 µM, first compound 0.000316 µM
[8] = second compound 0.1 µM, first compound 0.001 µM
[9] = second compound 0.1 µM, first compound 0.00316 µM
[10] = second compound 0.1 µM, first compound 0.01 µM
[11] = second compound 0.1 µM, first compound 0.0316 µM
[12] = second compound 0.1 µM, first compound 0.1 µM
[13] = second compound 0.316 µM, first compound 0.000316 µM
[14] = second compound 0.316 µM, first compound 0.001 µM
[15] = second compound 0.316 µM, first compound 0.00316 µM
[16] = second compound 0.316 µM, first compound 0.01 µM
[17] = second compound 0.316 µM, first compound 0.0316 µM
[18] = second compound 0.316 µM, first compound 0.1 µM
[19] = second compound 1 µM, first compound 0.000316 µM
[20] = second compound 1 µM, first compound 0.001 µM
[21] = second compound 1 µM, first compound 0.00316 µM
[22] = second compound 1 µM, first compound 0.01 µM
[23] = second compound 1 µM, first compound 0.0316 µM
[24] = second compound 1 µM, first compound 0.1 µM
[25] = second compound 3.16 µM, first compound 0.000316 µM
[26] = second compound 3.16 µM, first compound 0.001 µM
[27] = second compound 3.16 µM, first compound 0.00316 µM
[28] = second compound 3.16 µM, first compound 0.01 µM
[29] = second compound 3.16 µM, first compound 0.0316 µM
[30] = second compound 3.16 µM, first compound 0.1 µM
[31] = second compound 10 µM, first compound 0.000316 µM
[32] = second compound 10 µM, first compound 0.001 µM
[33] = second compound 10 µM, first compound 0.00316 µM
[34] = second compound 10 µM, first compound 0.01 µM
[35] = second compound 10 µM, first compound 0.0316 µM
[36] = second compound 10 µM, first compound 0.1 µM
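Note: compound exposure lasted seven days before viability was read.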
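Throughout, for viability, T/C: percent of vehicle DMSO treated spheroid viability so 100% = untreated.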

CC(=O)c1c(C)c2cnc(Nc3ccc(N4CCNCC4)cn3)nc2n(C2CCCC2)c1=O + CC(Nc1ncnc2nc[nH]c12)c1cc2cccc(Cl)c2c(=O)n1-c1ccccc1
IC50 (second compound 0.0316 µM): > 0.1 µM | IC50 (second compound 0.1 µM): > 0.1 µM | IC50 (second compound 0.316 µM): > 0.1 µM | IC50 (second compound 1 µM): > 0.1 µM | IC50 (second compound 3.16 µM): 0.0794 µM | IC50 (second compound 10 µM): 0.049 µM | viability, T/C [1]: 105% | viability, T/C [2]: 108% | viability, T/C [3]: 99% | viability, T/C [4]: 97.2% | viability, T/C [5]: 90% | viability, T/C [6]: 73% | viability, T/C [7]: 103% | viability, T/C [8]: 103% | viability, T/C [9]: 93% | viability, T/C [10]: 69.5% | viability, T/C [11]: 91.5% | viability, T/C [12]: 74.6% | viability, T/C [13]: 68.6% | viability, T/C [14]: 91.2% | viability, T/C [15]: 105% | viability, T/C [16]: 89.7% | viability, T/C [17]: 71.6% | viability, T/C [18]: 64.9% | viability, T/C [19]: 99.8% | viability, T/C [20]: 109% | viability, T/C [21]: 93% | viability, T/C [22]: 88.5% | viability, T/C [23]: 69.5% | viability, T/C [24]: 53.4% | viability, T/C [25]: 96.7% | viability, T/C [26]: 111% | viability, T/C [27]: 97.6% | viability, T/C [28]: 86.3% | viability, T/C [29]: 73.5% | viability, T/C [30]: 44.1% | viability, T/C [31]: 87.1% | viability, T/C [32]: 83.7% | viability, T/C [33]: 78.4% | viability, T/C [34]: 67.1% | viability, T/C [35]: 56.7% | viability, T/C [36]: 40.2%

CC(C)n1nc(-c2ccc3oc(N)nc3c2)c2c(N)ncnc21 + CC(Nc1ncnc2nc[nH]c12)c1cc2cccc(Cl)c2c(=O)n1-c1ccccc1
IC50 (second compound 0.0316 µM): > 0.1 µM | IC50 (second compound 0.1 µM): > 0.1 µM | IC50 (second compound 0.316 µM): > 0.1 µM | IC50 (second compound 1 µM): > 0.1 µM | IC50 (second compound 3.16 µM): > 0.1 µM | IC50 (second compound 10 µM): 0.0716 µM | viability, T/C [1]: 120% | viability, T/C [2]: 104% | viability, T/C [3]: 99.8% | viability, T/C [4]: 99.1% | viability, T/C [5]: 78.6% | viability, T/C [6]: 62.9% | viability, T/C [7]: 97.3% | viability, T/C [8]: 85.9% | viability, T/C [9]: 84.5% | viability, T/C [10]: 91.3% | viability, T/C [11]: 88.3% | viability, T/C [12]: 62% | viability, T/C [13]: 78.2% | viability, T/C [14]: 85.6% | viability, T/C [15]: 83.2% | viability, T/C [16]: 96.2% | viability, T/C [17]: 72.1% | viability, T/C [18]: 57.9% | viability, T/C [19]: 111% | viability, T/C [20]: 91.7% | viability, T/C [21]: 81.5% | viability, T/C [22]: 84% | viability, T/C [23]: 82.4% | viability, T/C [24]: 47.6% | viability, T/C [25]: 87.5% | viability, T/C [26]: 74% | viability, T/C [27]: 76.7% | viability, T/C [28]: 70.4% | viability, T/C [29]: 57.6% | viability, T/C [30]: 51.2% | viability, T/C [31]: 72.7% | viability, T/C [32]: 94.1% | viability, T/C [33]: 61.5% | viability, T/C [34]: 71.5% | viability, T/C [35]: 68.5% | viability, T/C [36]: 43%

CCCS(=O)(=O)Nc1ccc(F)c(C(=O)c2c[nH]c3ncc(-c4ccc(Cl)cc4)cc23)c1F + CC(Nc1ncnc2nc[nH]c12)c1cc2cccc(Cl)c2c(=O)n1-c1ccccc1
IC50 (second compound 0.0316 µM): 6.71 µM | IC50 (second compound 0.1 µM): 6.81 µM | IC50 (second compound 0.316 µM): 6.86 µM | IC50 (second compound 1 µM): 6.77 µM | IC50 (second compound 3.16 µM): 6.38 µM | IC50 (second compound 10 µM): 5.62 µM | viability, T/C [5]: 107% | viability, T/C [6]: 100% | viability, T/C (second compound 0.0316 µM, first compound 0.316 µM): 140% | viability, T/C (second compound 0.0316 µM, first compound 1 µM): 102% | viability, T/C (second compound 0.0316 µM, first compound 3.16 µM): 95.2% | viability, T/C (second compound 0.0316 µM, first compound 10 µM): 26.3% | viability, T/C [11]: 88.2% | viability, T/C [12]: 98.7% | viability, T/C (second compound 0.1 µM, first compound 0.316 µM): 95.9% | viability, T/C (second compound 0.1 µM, first compound 1 µM): 94% | viability, T/C (second compound 0.1 µM, first compound 3.16 µM): 108% | viability, T/C (second compound 0.1 µM, first compound 10 µM): 26.5% | viability, T/C [17]: 99.8% | viability, T/C [18]: 94% | viability, T/C (second compound 0.316 µM, first compound 0.316 µM): 111% | viability, T/C (second compound 0.316 µM, first compound 1 µM): 110% | viability, T/C (second compound 0.316 µM, first compound 3.16 µM): 96.3% | viability, T/C (second compound 0.316 µM, first compound 10 µM): 27% | viability, T/C [23]: 97% | viability, T/C [24]: 105% | viability, T/C (second compound 1 µM, first compound 0.316 µM): 109% | viability, T/C (second compound 1 µM, first compound 1 µM): 118% | viability, T/C (second compound 1 µM, first compound 3.16 µM): 91.6% | viability, T/C (second compound 1 µM, first compound 10 µM): 28.5% | viability, T/C [29]: 109% | viability, T/C [30]: 91.6% | viability, T/C (second compound 3.16 µM, first compound 0.316 µM): 99.9% | viability, T/C (second compound 3.16 µM, first compound 1 µM): 117% | viability, T/C (second compound 3.16 µM, first compound 3.16 µM): 84.3% | viability, T/C (second compound 3.16 µM, first compound 10 µM): 28% | viability, T/C [35]: 91.2% | viability, T/C [36]: 86.5% | viability, T/C (second compound 10 µM, first compound 0.316 µM): 91.6% | viability, T/C (second compound 10 µM, first compound 1 µM): 97% | viability, T/C (second compound 10 µM, first compound 3.16 µM): 78.1% | viability, T/C (second compound 10 µM, first compound 10 µM): 21.9%
